# Test results: patent US20200230126A1, “TARGETED THERAPEUTICS” (TARVEDA THERAPEUTICS, INC., priority 2017, published 2020)
# Columns and labels:
# [1] = Repeat dose GLP toxicity study in rats; format: in vivo, rat; settings: for AUC(0-t): in vivo, 30 mg/kg, at the STD10 in the GLP toxicology study
# Description: (§1) The SDC-TRAP-0063 selected starting dose is 30 mg IV on D1, D8, and D15 of each 28-day cycle. ICH S9 recommends that a starting clinical dose for a first-in-human study should be either 1/10th of the STD10 in rodent toxicity studies or ⅙th of the HNSTD in non-rodent toxicity studies.
# (§2) Based on the findings in the repeat dose GLP toxicity study in rats, the dose of one-tenth the rat STD10 gives a Human Equivalent Dose (HED) of 0.48 mg/kg informing the SDC-TRAP-0063 first-in-human starting dose (Table 10). The calculation based on the dog highest non-severe toxic dose (HNSTD) of 20 mg/kg determined in the repeat dose GLP toxicity study in dogs is shown in Table 11 and results in a higher HED of 1.9 mg/kg substantiating that rat is the more sensitive species. The human starting dose of 0.48 mg/kg is equivalent to 18 mg/m^2. Assuming an average human weight of 60 kg, the starting dose translates to 29 mg or using an average body surface area of 1.7 m^2, the starting dose is 30 mg.
# [2] = Light sensitivity of the diluted solution; format: physicochemical; settings: duration of 6 hours
# Excerpt: The diluted solution is attached to an infusion set free of diethylhexyl-phthalate (DEHP) and containing a 0.2 micron filter.
# [3] = pH-dependent equilibrium of lactone ring and open chain carboxylic acid form in solution; format: physicochemical
# Excerpt: In solution, SDC-TRAP-0063 contains a lactone ring at pH-dependent equilibrium with the corresponding open chain carboxylic acid form.
# [4] = tested on: tumor cells; test: DNA double-strand breaks in tumor cells; format: cell-based; settings: treatment of tumor cells
# Description: The histone H2A variant H2AX (γ-H2AX) is an indicator of DNA double-strand breaks and is a sensitive marker of DNA damage response. During the DNA damage response, double-stranded breaks (DSB) are generated that result in the rapid phosphorylation of γ-H2AX. […] These DSBs can be quantitated by measuring γ-H2AX levels. In in vivo pharmacology studies, PDc response to SDC-TRAP-0063 was assessed by immunostaining for γ-H2AX and was associated with anti-tumor activity of SDC-TRAP-0063. γ-H2AX has been used in clinical studies to monitor DNA damage induced by topoisomerase I inhibition, ionizing radiation, or Weel inhibition. During Phase 1 only, for patients who sign the provision of optional tumor biopsies and hair follicle collections, levels of γ-H2AX are evaluated in paired tumor biopsies and hair follicles to check for evidence of SDC-TRAP-0063-induced DNA damage response. Based on the mechanism of action of SDC-TRAP-0063, it would be expected that evidence of DNA damage, as measured by γ-H2AX and/or other markers of DNA damage, would be greater in tumor tissue compared to hair follicle. It is estimated that 10 high quality pairs of tumor biopsies and hair follicles are needed to adequately explore the relationship between SDC-TRAP-0063 treatment and DNA damage response.
# [5] = Exposure in mice; settings: mouse, in vivo, 20 mg/kg dose
# Description: (§3) Exposures achieved in these toxicology studies exceed the levels anticipated to show anti-tumor activity, based on anti-tumor efficacy determined in mice. The minimum dose for anti-tumor efficacy in mice xenografts was determined to be 20 mg/kg with once weekly administration. […] This exposure is similar to that in rats at the STD10 in the GLP toxicology study where the AUCt values determined were 107 and 68 μg·h/mL in males and female rats, respectively. The mouse exposure is lower that the exposure at the HNSTD in dogs, 181 and 183 μg·h/mL in male and female dogs, respectively. Using body surface area, the dog HNSTD for SDC-TRAP-0063 is 6.6-fold higher than the minimum dose for efficacy in the mouse while the rat STD10 is 3 fold higher.
# [6] = tested on: mice xenografts; test: Anti-tumor efficacy in mice xenografts; format: in vivo, mouse; settings: once weekly administration
# Description: as §3
# [7] = Repeat dose GLP toxicity study in dogs; format: in vivo, dog; settings: for AUC(0-t): in vivo, 20 mg/kg, at the HNSTD, read-out: exposure (AUCt)
# Description: as §1, §2
# [8] = mg/kg human dose multiplied by 37
structure (smiles),measurement,setting,value
CCc1c2c(nc3ccc(OC(=O)N4CCC(CCn5ccc6cc(-n7c(O)nnc7-c7cc(C(C)C)c(O)cc7O)ccc65)CC4)cc13)-c1cc3c(c(=O)n1C2)COC(=O)[C@]3(O)CC [SDC-TRAP-0063],HED of 1/10 Rat STD10,[1]; 1/10 rat STD10 divided by 6.2 (60 kg human),0.48 mg/kg
same,Rat 1/10 STD10,[1]; mg/kg dose in rat multiplied by 6,18 mg/m^2
same,HED of 1/10 Rat STD10,[1]; [8],18 mg/m^2
same,1/10 Rat STD10,[1]; rat,3.0 mg/kg
same,AUC(0-t),"[1]; rat, female rats",68 µg·h/mL
same,AUC(0-t),"[1]; rat, male rats",107 µg·h/mL
same,Rat STD10,[1]; repeat dose GLP toxicity study in rats,30 mg/kg
same,rat STD10 relative to the minimum dose for efficacy in the mouse,[1]; using body surface area,3 fold
same,light sensitivity of the diluted solution,[2],not light sensitive
same,pKa,[3],9.3
same,DNA double-stranded breaks (DSBs),[4],induces DNA DSBs
same,AUC(0-t),[5],112 µg·h/mL
same,minimum dose for anti-tumor efficacy,[6],20 mg/kg
same,HED of 1/6 Dog HNSTD,[7]; 1/6 dog HNSTD divided by 1.8 (60 kg human),1.9 mg/kg
same,1/6 Dog HNSTD,[7]; dog,3.3 mg/kg
same,AUC(0-t),"[7]; dog, female dogs",183 µg·h/mL
same,AUC(0-t),"[7]; dog, male dogs",181 µg·h/mL
same,Dog 1/6 HNSTD,[7]; mg/kg dose in dog multiplied by 20,67 mg/m^2
same,HED of 1/6 Dog HNSTD,[7]; [8],69 mg/m^2
same,Dog HNSTD,[7]; repeat dose GLP toxicity study in dogs,20 mg/kg
same,dog HNSTD relative to the minimum dose for efficacy in the mouse,[7]; using body surface area,6.6 fold
